Experimental data: US20220153739A1, “OPIOID RECEPTOR MODULATOR AND USE THEREOF” (Arriba BioPharma, Inc., priority 2020, published 2022)

Tests used:
[1] = Metabolic stability in SD rat liver microsomes; format: in vitro ADME
Method: (§1) The metabolic stability of Compound D in SD rat and human liver microsomes were measured One (1) μM of Compound D was incubated with SD rat or human liver microsomes with NADPH in a water bath or tecan at 37° C. for up to 60 min. All samples were monitored using LC-MS/MS.

[2] = Metabolic stability in human liver microsomes; format: in vitro ADME
Method: as §1

[3] = Bidirectional permeability in Caco-2 cells; format: in vitro ADME; conditions: human, 120 minutes; for Papp B→A at 120 min, 2 μM: Caco-2, Caco-2, B to A direction, read-out: mean apparent permeability coefficient (Papp), B to A
Method: (§2) The objective of this study was to determine the bidirectional permeability and efflux ratio of compound D in the Caco-2 cells. Caco-2 cells (purchased from ATCC) at passage number 49 were seeded on 96-well transport inserts and cultured for 22 days before being used for the transport experiment. Compound D was dosed bi-directionally at 2 μM. Samples were taken at 0 and 120 minutes after incubation and analyzed by LC-MS/MS. […] Therefore, both the efflux ratios could not be calculated.

[4] = test system: Caco-2 cells; assay: Bidirectional permeability in Caco-2 cells; format: in vitro ADME
Method: as §2

[5] = test system: male CD-1 mice; assay: Stress induced fecal output; format: in vivo; conditions: for 0 h (Stools), mean / 0-1 h (Stools), mean / 1-2 h (Stools), mean / 2-4 h (Stools), mean: 50 mg/kg PO, stress induced
Excerpt: The animals used in the studies are male CD-1 mice, average weight about 25 to 35 g, with an average of 5 mice per dose group. The mice were generally housed in colony housing where they are housed 4 per cage in polycarbonate 20 cages with access to food and water ad lib. On the day of the experiment they are transported to the procedure room where they were individually housed in metabolism cage (CAT003) after intragastric administration of Compound D at 50mpk, a reference compound of Formula II (“ORP-101”), and the vehicle alone. Compound D (“ALB-215896”) and the reference compound were each weighed and dissolved in 2.58 ml of de-ion water, mixed by vortex, to prepare the compound D and reference compound solutions at 5 mg/mL.
During the test, the animals were fasted with free access to water. The wire mesh bottomed tall cage creates a novel environment which induces stress in mice. Stool collection and the number of pellets excreted were determined 0, 1, 2, 4 hours after administration. […] Details data of this study is provided below in Table 1.

[6] = test system: male CD-1 mice; assay: Post-inflammatory altered GI transit time (mustard oil), fecal output; format: in vivo; conditions: for 0 h (Stools), mean / 1 h (Stools), mean / 2 h (Stools), mean / 4 h (Stools), mean: 50 mg/kg PO, post-inflammatory
Method: This test was designed to measure the effect of test substance on gastrointestinal hypersensitivity that occurs following inflammation. Post-inflammatory altered GI transit was induced in male CD-1 mice by injecting freshly opened oil of mustard (95% pure allyl isothiocyanate, 0.5% in ethanol). The effect of stress on GI is motility is evaluated 4 weeks later, when although there is no longer inflammation, the GI tract remains in a hypersensitive state. Effect of test substance was measured after oral administration (intragastric gavage) and subjecting the animals to environmental stress by housing them in metabolism cage. During the test, the animals were allowed access to water ad lib. The wire mesh bottomed tall cage creates a novel environment, which induces stress in mice. The number of pellets excreted was determined at 1 h, 2 h and 4 h after administration. Compound D (ALB-215896) and ORP-101 were each weighed and dissolved in 2.58 ml of de-ion water, mixed by vortex, to prepare the compound D and reference compound solutions at 5 mg/mL.

[7] = 1 μM, NADPH, 37° C., up to 60 min, read-out: half-life (T1/2)
[8] = read-out: intrinsic clearance (CLint(liver))

Row | SMILES | Papp B→A at 120 min, 2 μM [3] | 0 h (Stools), mean [5] | 0-1 h (Stools), mean [5] | 1-2 h (Stools), mean [5] | 2-4 h (Stools), mean [5] | 0 h (Stools), mean [6] | 1 h (Stools), mean ([6]; 1 h) | 2 h (Stools), mean [6] | 4 h (Stools), mean [6] | also measured
1 | COc1ccc2c3c1O[C@@H]1[C@@]4(OCCOc5ccc6c7c5OC5C8(OC)CC[C@@]9(CC8[C@](C)(O)C(C)(C)C)[C@@H](C6)N(CC6CC6)CCC759)CC[C@@]5(C[C@@H]4[C@](C)(O)C(C)(C)C)[C@@H](C2)N(CC2CC2)CC[C@]315 (stereo in doubt) [Compound D, 2-((4R,4aS,6R,7R,7aR,12bS)-9-(2-(((4R,4aS,6R,7R,7aS,12bS)-9-(Methyloxy)-3-(cyclopropylmethyl)-6-(2-hydroxy-3,3-dimethylbutan-2-yl)-1,2,3,4,5,6 hexahydro-4a,7-ethano-4,12-methanobenzofuro[3,2-e]isoquinolin-7(7aH)yl)oxy)ethoxy)-3-(cyclopropylmethyl)-7-methoxy-1,2,3,4,5,6,7,7a-octahydro-4a,7ethano-4,12-methanobenzofuro[3,2-e]isoquinolin-6-yl)-3,3-dimethylbutan-2-ol] | < 0.4 ×10⁻⁶ cm/s | 0 Stools | 2.4 Stools | 1.4 Stools | 2 Stools | 0.00 Stools | 1.49 Stools | 1.59 Stools | 2.77 Stools | metabolic stability in words [1]: moderately metabolized; half-life at 1 μM [1, 7]: 1.46 h; CLint scaled at 1 μM [1, 8]: 28.5 mL/min/kg; metabolic stability in words [2]: stably metabolized; half-life at 1 μM [2, 7]: 1.37 h; CLint scaled at 1 μM [2, 8]: 15.2 mL/min/kg; Papp A→B at 120 min, 2 μM ([3]; Caco-2, apical to basolateral, 2 μM, read-out: mean apparent permeability coefficient (Papp), A to B): < 0.48 ×10⁻⁶ cm/s; mean apparent permeability coefficient (Papp), B to A ([4]; Caco-2, B to A direction, 120 minutes): < 0.5 ×10⁻⁶ cm/s; substrate of transporters ([4]; Caco-2, from B to A Papp): poor and no substrate of transporters; permeability classification ([4]; across the Caco-2 cell monolayer): low permeability; fecal output versus vehicle and reference compound, in words ([5]; oral 50mpk, 1 h, 2 h and 4 h time points): significantly reduced the fecal output; gastrointestinal motility measured by fecal output, in words ([6]; 50mpk, 1 h, 2 h, and 4 h time points, post-inflammatory model): significantly decreased gastrointestinal motility
2 | CO[C@]12CC[C@@]3(C[C@@H]1[C@](C)(O)C(C)(C)C)[C@H]1Cc4ccc(OCCOc5ccc6c7c5O[C@H]5C78CCN(CC7CC7)[C@H](C6)[C@]86CC[C@]5(OC)[C@@H]([C@](C)(O)C(C)(C)C)C6)c5c4[C@@]3(CCN1CC1CC1)[C@@H]2O5 [ORP-101, reference compound] | < 0.13 ×10⁻⁶ cm/s | 0 Stools | 3.8 Stools | 3 Stools | 2.8 Stools | 0 Stools | 1.75 Stools | 2.00 Stools | 3.75 Stools | Papp A→B at 120 min ([3]; Caco-2, apical to basolateral, read-out: mean apparent permeability coefficient (Papp), A to B): < 0.14 ×10⁻⁶ cm/s
